Ends that are not written are not given here.

Assay type in all cases: in vivo
Test [1] has as its system intestines. The test can be described thus: Incorporation of C^14-uridine (RNA synthesis) in intestines of treated mice. The following applies: 7 hours after treatment of mice, in comparison with control animals not treated with IEGs. Here is the method:
(§1) Laboratory experiments were carried out to accomplish the third object concerning the effect of preparations on biosynthetic processes which was assessed by the incorporation of H^3 -thymidine (DNA-synthesis) and C^14 -uridine (RNA synthesis) in various regions of the intestines of the mice tested. The preparation's morphogenic effect was assessed by the enterocytic cellularity and DNA concentration in the same regions.
(§2) Each fraction obtained in purifying IEG (see Object 1) was tested on mice. 3 mg of the peptide content of the fraction was administered intraperitoneally simultaneously with the testing reagent (isotope); the animals were then killed and investigated 7 hours afterwards. […] Both IEGs have a suppressive effect on DNA synthesis especially in the lower regions of intestines: IEG1 by 45%, IEG2 --by 48%. […] In this way it switches on the chain of molecular mechanisms by which it acts on the smooth muscle motility.

Test [2] deals with intestines. The test can be described thus: DNA concentration in intestines of treated mice (morphogenic effect). The following applies: 7 hours after treatment of mice, in comparison with control animals not treated with IEGs. The protocol: as §1, §2
The subject of test [3] is intestines. The test can be described thus: Enterocytic cellularity in intestines of treated mice (morphogenic effect). The conditions noted are these: for Cellularity: 7 hours after treatment of mice, in comparison with control animals not treated with IEGs. Here is the method: as §1, §2
Test [4] has as its system intestines. The test can be described thus: Incorporation of H^3-thymidine (DNA synthesis) in intestines of treated mice. The following applies: for Incorporation H^3-thymidine: 7 hours after treatment of mice, in comparison with control animals not treated with IEGs. The protocol: as §1, §2
Where [5] appears, read: Middle section of the intestines.

Turning to “Arg-Arg-Asp-Asp-His-Arg-NH2 (RRDDHR-NH2) [IEG2, ID; NO]”, the “Incorporation C^14-uridine” value with intestines [1] (Duodenum) is 78%; in the test with intestines [1] (Ileum) it was 74%; in the test on intestines [1] (Jejunum), 78%; in the test with intestines [1] (setting [5]), 74%. The DNA concentration in the test with intestines [2] (Duodenum) came out at 68%; in the test on intestines [2] (Ileum), 77%; in the test on intestines [2] (Jejunum), 97%; with intestines [2] (setting [5]), 62%. The Cellularity in the test on intestines [3] (Duodenum) is listed as 88%; in the test on intestines [3] (Ileum), 85%; in the test on intestines [3] (Jejunum), 75%; in the test with intestines [3] (setting [5]), 83%. In addition, the “Average reduction in enterocyte number” value in the test on intestines [3] (mice, 3 mg peptide content intraperitoneally, 7 hours) amounted to 20%. The “Incorporation H^3-thymidine” value is 77% with intestines [4] (Duodenum), 55% with intestines [4] (Ileum), 88% in the test on intestines [4] (Jejunum) and 48% in the test with intestines [4] (setting [5]). Moreover, the “suppressive effect on DNA synthesis” value with intestines [4] (lower regions of intestines, mice, 3 mg intraperitoneally, 7 hours) turned out to be 48%.

These data come from patent publication US6015878A, “Antitumor agents isolated from intestinal mucosa, a method for their isolation and their application” (Alexandrov, Christo Alexandrov, priority 1995, dated 2000).
